This is an account of results in ChEMBL document CHEMBL5465560, “Selectivity Literature for EUbOPEN Chemogenomic Library” (2024).

For assay [1], the target named is T1, Phosphatidylinositol 4,5-bisphosphate 3-kinase catalytic subunit delta isoform (Homo sapiens) (UniProt O00329).
T1 sequence (whole entry): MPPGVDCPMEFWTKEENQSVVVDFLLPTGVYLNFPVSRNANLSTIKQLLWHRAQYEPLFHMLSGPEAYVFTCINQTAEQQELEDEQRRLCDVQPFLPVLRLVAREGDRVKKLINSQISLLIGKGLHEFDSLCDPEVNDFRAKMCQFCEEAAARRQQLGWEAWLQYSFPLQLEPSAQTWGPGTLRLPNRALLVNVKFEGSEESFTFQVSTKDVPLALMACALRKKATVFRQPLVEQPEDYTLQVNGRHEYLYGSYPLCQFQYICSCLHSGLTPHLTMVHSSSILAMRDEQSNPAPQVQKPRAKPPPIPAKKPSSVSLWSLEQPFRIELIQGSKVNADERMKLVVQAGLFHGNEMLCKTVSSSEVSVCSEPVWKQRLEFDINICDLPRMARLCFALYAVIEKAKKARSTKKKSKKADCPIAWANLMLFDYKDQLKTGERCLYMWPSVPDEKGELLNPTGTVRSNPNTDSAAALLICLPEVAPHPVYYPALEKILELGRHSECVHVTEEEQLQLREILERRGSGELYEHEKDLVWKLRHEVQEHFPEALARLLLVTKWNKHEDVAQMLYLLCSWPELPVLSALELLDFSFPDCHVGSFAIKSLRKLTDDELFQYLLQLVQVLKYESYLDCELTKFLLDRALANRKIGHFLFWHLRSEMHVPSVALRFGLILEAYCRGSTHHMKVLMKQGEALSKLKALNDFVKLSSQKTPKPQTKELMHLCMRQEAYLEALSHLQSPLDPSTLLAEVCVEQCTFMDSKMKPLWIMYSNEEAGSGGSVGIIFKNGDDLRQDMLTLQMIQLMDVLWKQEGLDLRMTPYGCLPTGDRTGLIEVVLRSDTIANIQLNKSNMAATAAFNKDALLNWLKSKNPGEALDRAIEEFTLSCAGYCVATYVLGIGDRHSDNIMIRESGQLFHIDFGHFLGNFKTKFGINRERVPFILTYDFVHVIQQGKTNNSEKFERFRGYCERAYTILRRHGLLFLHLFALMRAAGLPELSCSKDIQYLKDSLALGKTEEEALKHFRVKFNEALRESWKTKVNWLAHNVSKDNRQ
Nature of the assay: Selectivity interaction (ProQinase) EUB0000171b PIK3CD.

Assay [2] concerns the target Eukaryotic translation initiation factor 2-alpha kinase 1 (Homo sapiens) (UniProt Q9BQI3). The assay is described as follows: Selectivity interaction (Ambit KINOMEscan and KiNATiv profiling in Jurkat cells) EUB0000090b EIF2AK1. To be noted: at 1 µM. The class given is cell-based.
The target of assay [3] is T2, Membrane-associated tyrosine- and threonine-specific cdc2-inhibitory kinase (Homo sapiens) (UniProt Q99640).
T2 sequence (whole entry): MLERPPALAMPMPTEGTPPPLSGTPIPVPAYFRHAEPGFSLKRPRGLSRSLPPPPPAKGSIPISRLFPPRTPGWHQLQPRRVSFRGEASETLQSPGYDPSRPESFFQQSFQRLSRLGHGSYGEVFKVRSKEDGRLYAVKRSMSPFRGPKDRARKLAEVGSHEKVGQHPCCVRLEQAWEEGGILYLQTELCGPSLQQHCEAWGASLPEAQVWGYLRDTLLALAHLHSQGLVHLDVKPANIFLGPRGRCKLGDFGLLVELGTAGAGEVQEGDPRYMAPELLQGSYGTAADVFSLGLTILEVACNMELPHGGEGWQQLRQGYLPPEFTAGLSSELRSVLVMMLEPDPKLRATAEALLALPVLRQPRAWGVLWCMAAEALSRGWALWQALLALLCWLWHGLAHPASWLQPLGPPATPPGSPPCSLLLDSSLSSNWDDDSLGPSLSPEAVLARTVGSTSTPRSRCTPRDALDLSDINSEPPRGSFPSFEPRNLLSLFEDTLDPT
Nature of the assay: Selectivity interaction (KinomeScan (DiscoverX)) EUB0001049a PKMYT1. As to conditions: at 1 µM.

Assay [4] addresses T3, Serine/threonine-protein kinase TAO2 (Homo sapiens) (UniProt Q9UL54).
T3 sequence (whole entry): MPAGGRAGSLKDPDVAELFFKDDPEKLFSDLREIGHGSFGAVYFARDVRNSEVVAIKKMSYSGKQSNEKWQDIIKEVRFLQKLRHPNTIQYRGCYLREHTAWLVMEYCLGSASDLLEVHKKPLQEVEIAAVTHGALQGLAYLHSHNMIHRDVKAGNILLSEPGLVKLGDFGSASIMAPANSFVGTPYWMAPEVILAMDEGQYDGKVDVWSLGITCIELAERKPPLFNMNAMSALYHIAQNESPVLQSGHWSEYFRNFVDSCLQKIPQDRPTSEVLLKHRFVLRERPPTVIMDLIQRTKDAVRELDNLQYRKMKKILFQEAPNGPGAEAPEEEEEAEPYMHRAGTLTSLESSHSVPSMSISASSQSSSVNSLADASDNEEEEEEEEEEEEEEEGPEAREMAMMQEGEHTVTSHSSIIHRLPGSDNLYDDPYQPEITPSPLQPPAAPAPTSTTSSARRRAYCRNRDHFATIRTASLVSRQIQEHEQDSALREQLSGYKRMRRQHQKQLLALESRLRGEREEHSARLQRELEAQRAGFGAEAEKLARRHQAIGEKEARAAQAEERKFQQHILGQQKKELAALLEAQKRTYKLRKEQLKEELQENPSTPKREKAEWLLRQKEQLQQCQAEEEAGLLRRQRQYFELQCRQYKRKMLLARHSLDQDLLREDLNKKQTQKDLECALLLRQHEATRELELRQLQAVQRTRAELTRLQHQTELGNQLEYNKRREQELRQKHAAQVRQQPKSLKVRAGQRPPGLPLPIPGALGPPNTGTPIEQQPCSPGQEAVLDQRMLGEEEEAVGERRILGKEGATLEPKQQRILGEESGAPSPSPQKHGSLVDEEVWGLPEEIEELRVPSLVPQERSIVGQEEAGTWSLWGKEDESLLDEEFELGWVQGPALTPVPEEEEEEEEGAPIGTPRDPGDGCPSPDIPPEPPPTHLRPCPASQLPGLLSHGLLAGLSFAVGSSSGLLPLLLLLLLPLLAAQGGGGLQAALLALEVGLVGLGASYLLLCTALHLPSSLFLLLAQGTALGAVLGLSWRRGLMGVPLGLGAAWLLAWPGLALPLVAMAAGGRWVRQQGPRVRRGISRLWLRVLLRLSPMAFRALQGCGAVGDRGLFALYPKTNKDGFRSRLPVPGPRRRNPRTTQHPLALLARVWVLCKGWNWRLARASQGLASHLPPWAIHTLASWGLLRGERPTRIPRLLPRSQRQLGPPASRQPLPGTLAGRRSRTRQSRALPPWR
Nature of the assay: Selectivity interaction (KinomeScan (DiscoverX)) EUB0000695a TAOK2. To be noted: at 100 nM.

In assay [5] the target is PH-interacting protein (Homo sapiens) (UniProt Q8WWQ0). Nature of the assay: Selectivity interaction (Bromodomain panel (DSF asssay)) EUB0000270b PHIP.
The target in assay [6] is Casein kinase I isoform alpha (Homo sapiens, UniProt P48729). The assay is described as follows: Selectivity interaction (SelectScreen profiling (Invitrogen)) EUB0000607a CSNK1A1. To be noted: at 2 µM.

The structures appear in SMILES notation.

Chain of Casein kinase I isoform alpha (P48729 2-337 limits assumed): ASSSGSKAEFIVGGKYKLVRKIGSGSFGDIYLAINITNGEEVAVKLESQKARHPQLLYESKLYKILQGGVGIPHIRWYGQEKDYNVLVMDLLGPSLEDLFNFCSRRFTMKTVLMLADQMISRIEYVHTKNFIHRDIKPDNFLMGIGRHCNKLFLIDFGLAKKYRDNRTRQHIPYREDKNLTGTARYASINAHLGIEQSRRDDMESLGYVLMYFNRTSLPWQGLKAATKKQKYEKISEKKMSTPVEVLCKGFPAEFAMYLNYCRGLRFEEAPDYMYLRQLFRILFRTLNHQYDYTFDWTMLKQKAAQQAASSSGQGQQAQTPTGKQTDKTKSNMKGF
Chain of Eukaryotic translation initiation factor 2-alpha kinase 1 (Homo sapiens) (Q9BQI3 whole entry): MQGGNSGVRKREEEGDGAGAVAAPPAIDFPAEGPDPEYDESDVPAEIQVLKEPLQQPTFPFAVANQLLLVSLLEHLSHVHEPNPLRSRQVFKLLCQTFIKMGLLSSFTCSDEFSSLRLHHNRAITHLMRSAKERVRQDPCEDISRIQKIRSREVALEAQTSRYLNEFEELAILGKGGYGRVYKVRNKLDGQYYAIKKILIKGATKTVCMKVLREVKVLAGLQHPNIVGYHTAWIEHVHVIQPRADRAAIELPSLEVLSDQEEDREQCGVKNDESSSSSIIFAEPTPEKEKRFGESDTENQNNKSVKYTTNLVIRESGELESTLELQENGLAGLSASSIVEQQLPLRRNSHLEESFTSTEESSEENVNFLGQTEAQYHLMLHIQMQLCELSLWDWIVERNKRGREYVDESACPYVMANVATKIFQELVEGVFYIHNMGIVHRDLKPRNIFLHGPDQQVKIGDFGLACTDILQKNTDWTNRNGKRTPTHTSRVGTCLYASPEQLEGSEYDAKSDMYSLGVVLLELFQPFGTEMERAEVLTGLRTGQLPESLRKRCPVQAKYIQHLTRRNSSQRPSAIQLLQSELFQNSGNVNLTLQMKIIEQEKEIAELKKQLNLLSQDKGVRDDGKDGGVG

Regarding `C=CC(=O)Nc1cccc(C(=O)Nc2ccc(Nc3cc(-c4[nH]c(SC)nc4C)ccn3)cc2)c1`, the results for the % of control in assay [1] (at 1 µM) and in assay [1] (at 5 µM) were 119% and 113%, respectively. In assay [2], `CN(C)C/C=C/C(=O)Nc1ccc(C(=O)N2CCCC(Nc3ncc(Cl)c(-c4c[nH]c5ccccc45)n3)C2)cc1` (configuration not stated) registered a % of control of 84%. Take `COc1cc(Nc2nc(C)cc(-c3cnn4nc(OC)ccc34)n2)cc(C(F)(F)F)c1`: the % of control in assay [3] stood at 97%. As to `Cc1cc(F)c(C(=O)Nc2cccc(-c3nncn3C(C)C)n2)cc1-n1cnc(C2CC2)c1`, the % of control in assay [4] is 100%. `Cc1cc(CN)cc(C)c1-c1ncn(C)c1-c1cncn1C` had a dTM in assay [5] of -1.36 K. As for `CNC(=O)Nc1ccc(-c2nc(N3CC4CCC(C3)O4)c3cnn(C4CCC5(CC4)OCCO5)c3n2)cc1`, the % of inhibition in assay [6] turned out to be 2%.
